pIC50: −log10 of the molar value.
Key:
[1] = system: Capan2 tumor xenografts; assay: Growth of human pancreatic tumor xenografts in SCID mice; assay type: in vivo; conditions: for % Tumor Growth Inhibition: Capan2-D01, QD, Treatment Duration 56; for tumor growth inhibition: Capan2
Experimental: (§1) Female SCID mice were implanted subcutaneously with HPAC or Capan2 tumor cells (human pancreatic carcinoma harboring mutant KRAS gene). When the tumor volume reached ˜150 mm^3, mice were block randomized to different treatment groups (n=8 mice/group). Mice received AKT inhibitor, Compound B, at 10 or 30 mg/kg, once daily (QD). MEK inhibitor, Compound A, was administered at 0.1, 0.3 and 1.0 mg/kg, once daily (QD) alone or at 0.1 and 0.3 mg/kg once daily in combination with AKT inhibitor. Mice were weighed and tumors measured by calipers twice weekly. Treatment was continued till the tumor volume reached >1000 mm^3. Tumor volumes were calculated using the formula: tumor volume=(Length×Width^2)/2. The percentage of tumor growth inhibition was calculated on each day of tumor measurement using the formula: 100×[1−(average growth of the compound-treated tumors/average growth of vehicle-treated control tumors)]. Data is plotted as mean±sem for tumor volume for each group.

[2] = system: HPAC tumor xenografts; assay: as above; assay type: in vivo; conditions: for % Tumor Growth Inhibition: QD; for tumor growth inhibition: HPAC
Experimental: as §1

[3] = system: HPAFII; assay: Cell line proliferation study; assay type: cell-based, human; conditions: pancreas; for pIC50: Homo sapiens, HPAF-II, 72 hours, read-out: gIC50
Experimental: (§2) In a separate study, combination drug tests with Compounds A and B were conducted using a panel of cell lines from human colon cancers (n=26), lung cancers (n=15) and pancreatic cancers (n=6). Cell lines were obtained from commercial vendors (ATCC and DSMZ). Cell lines were grown in RPMI-1640 supplemented with 2 mM glutamine, 1 mM sodium pyruvate and 10% fetal bovine serum (except for Capan-1 and HuP-T4 which were grown with 20% fetal bovine serum) and maintained at 37° C. and 5% CO2 in a humid incubator. Assays were performed in 384 well microtiter plates with optimum seeding densities for each cell line.
(§3) The test compounds were prepared as 10 mM stocks in 100% DMSO. Further dilutions of the compounds were made in DMSO. Compound A was diluted horizontally in a separate 96 well microtiter plate in rows D-G using a 3-fold dilution series for 10 dilution points. Compound B was similarly diluted horizontally in a 96 well microtiter plate in rows B-E using a 3-fold dilution series for 10 dilution points.
(§4) The two compounds were combined using equal volumes from each drug plate into cell culture media. […] Both Compound A and Compound B were individually titrated in rows B and C (for Compound B) and rows F and G (for Compound A) of the merged drug plate.
(§5) A 1:10 dilution of the drugs was performed in cell culture media prior to addition to the cells.
(§6) The final concentration range for the test compounds was 250 to 0.013 nM for Compound A and 1000 to […] for Compound B. The positive control consisted of culture media with DMSO at 0.1% and cells. The negative control consisted of culture media with DMSO at 0.1%. The cell lines were incubated at 37° C., 5% CO2 in humid air for 72 hours. Cell proliferation was measured using the CellTiter Glo (Promega) reagent according to the manufacturer's protocol. The plates are treated with CellTiter Glo solution and are analyzed for RLU (relative light units) using a Molecular Devices SpectraMax M5 plate reader.
(§7) The percent intensity values were used in model 205 of XLfit (IDBS, Inc.) in Microsoft Excel to calculate gIC50 values using a 4 parameter logistical fit. The midpoint of the growth window (the gIC50) falls half way between the number of cells at the time of compound addition (T=0) and the growth of control cells treated with DMSO at 72 hrs. The number of cells at time zero (T0) is divided from the intensity value at the bottom of the response curve (Ymin) to generate a measure for cell death (Ymin/T0). A value below 1 for Ymin/T0 indicates stronger potency to induce cell death with the treatment when compared to higher values.
(§8) 1. Excess over Highest Single Agent (EOHSA)—This was calculated as described above (Borisy et al, 2003; FDA 21 CFR 300.50) 2. Bliss synergy—A second criterion often used to determine combination synergy is evaluating the excess inhibition over Bliss independence or “additivity” (Bliss and Mexico, 1939). The model assumes a combined response of the two compounds independently using the following:
(§9) Where Ea is the effect (or percent inhibition) of Compound A and Eb is the effect of Compound B. The resulting effect of the combination of the two compounds is compared to their predicted additivity by Bliss and a synergy score is generated for each dose along the response curve. 3. Combination Index (CI)—A third criterion traditionally used for the evaluation of synergy is Combination Index (CI) derived from the Chou and Talalay (1984). The following equation is a model used for compounds that behave with different mechanisms of action (mutually non-exclusive formula). This was calculated as described above.
(§10) For EOHSA and Bliss Synergy measures, a score is generated for each dose along the response curve. These scores reflect the percentage over the highest agent (EOHSA) or percentage greater than Bliss additivity, depending on which metric is being interpreted. […]

[4] = system: WiDr; assay: Cell line proliferation study; assay type: cell-based, human; conditions: colon; for pIC50: Homo sapiens, 72 hours, read-out: gIC50
Experimental: as §2, §3, §4, §5, §6, §7, §8, §9, §10

[5] = system: SW48; assay: Cell line proliferation study; assay type: cell-based, human; conditions: SW48, colon; for pIC50: Homo sapiens, 72 hours, read-out: gIC50
Experimental: as §2, §3, §4, §5, §6, §7, §8, §9, §10

[6] = system: HCT8; assay: Cell line proliferation study; assay type: cell-based, human; conditions: HCT8, colon; for pIC50: Homo sapiens, HCT-8, 72 hours, read-out: gIC50
Experimental: as §2, §3, §4, §5, §6, §7, §8, §9, §10

[7] = system: NCIH1299; assay: Cell line proliferation study; assay type: cell-based, human; conditions: NCIH1299, lung; for pIC50: Homo sapiens, NCI-H1299, 72 hours, read-out: gIC50
Experimental: as §2, §3, §4, §5, §6, §7, §8, §9, §10

[8] = system: MiaPaCa; assay: Cell line proliferation study; assay type: cell-based, human; conditions: for pIC50: Homo sapiens, MIA PaCa-2, pancreas, 72 hours, read-out: gIC50; for Ymin/T0: pancreas
Experimental: as §2, §3, §4, §5, §6, §7, §8, §9, §10

[9] = system: NCIH2030; assay: Cell line proliferation study; assay type: cell-based, human; conditions: NCIH2030, lung; for pIC50: Homo sapiens, NCI-H2030, 72 hours, read-out: gIC50
Experimental: as §2, §3, §4, §5, §6, §7, §8, §9, §10

[10] = system: SW900; assay: Cell line proliferation study; assay type: cell-based, human; conditions: SW900, lung; for pIC50: Homo sapiens, 72 hours, read-out: gIC50
Experimental: as §2, §3, §4, §5, §6, §7, §8, §9, §10

Row | pIC50 [5] | pIC50 [6] | pIC50 [8] | pIC50 [10] | SMILES | pIC50 [3] | Ymin/T0 [3] | pIC50 [4] | Ymin/T0 [4] | Ymin/T0 [5] | Ymin/T0 [6] | pIC50 [7] | Ymin/T0 [7] | Ymin/T0 [8] | pIC50 [9] | Ymin/T0 [9] | Ymin/T0 [10] | further results
1 | 8.09 | 7.74 | 7.63 | 7.82 | CC(=O)Nc1cccc(-n2c(=O)n(C3CC3)c(=O)c3c(Nc4ccc(I)cc4F)n(C)c(=O)c(C)c32)c1 [Compound A, N-{3-[3-cyclopropyl-5-(2-fluoro-4-iodo-phenylamino)-6,8-dimethyl-2,4,7-trioxo-3,4,6,7-tetrahydro-2H-pyrido[4,3-d]pyrimidin-1-yl]phenyl}acetamide] | 7.80 | −0.8 | 8.73 | 3.94 | 13.02 | 16.70 | 7.62 | 45.9 | 25.0 | < 6.60 | 55.8 | −5.9 | % Tumor Growth Inhibition ([1]; Compound A 0.1 mg/kg po): 74%; % Tumor Growth Inhibition ([1]; Compound A 0.3 mg/kg po): 90%; % Tumor Growth Inhibition ([1]; Compound A 1 mg/kg po): 104%; tumor growth inhibition ([1]; 0.1 mg/kg): 70%; tumor growth inhibition ([1]; 0.3 mg/kg): 87%; tumor growth inhibition ([1]; 1.0 mg/kg): 104%; % Tumor Growth Inhibition ([2]; HPAC-D01, Compound A 0.1 mg/kg po, Treatment Duration 75): 38%; % Tumor Growth Inhibition ([2]; HPAC-D01, Compound A 0.3 mg/kg po, Treatment Duration 75): 60%; % Tumor Growth Inhibition ([2]; HPAC-D01, Compound A 1 mg/kg po, Treatment Duration 75): 91%; % Tumor Growth Inhibition ([2]; HPAC-D02, Compound A 0.1 mg/kg po, Treatment Duration 74): 41%; % Tumor Growth Inhibition ([2]; HPAC-D02, Compound A 0.3 mg/kg po, Treatment Duration 74): 65%; % Tumor Growth Inhibition ([2]; HPAC-D02, Compound A 1 mg/kg po, Treatment Duration 74): 89%; tumor growth inhibition ([2]; 0.1 mg/kg QD): ~40%; tumor growth inhibition ([2]; 0.3 mg/kg QD): ~60%; tumor growth inhibition ([2]; 1 mg/kg QD): ~90%
2 | 6.37 | 6.12 | < 6.00 | < 6.00 | Cn1ncc(Cl)c1-c1cc(C(=O)N[C@H](CN)Cc2ccc(F)c(F)c2)oc1Cl [Compound B, N-{(1S)-2-amino-1-[(3,4-difluorophenyl)methyl]ethyl}-5-chloro-4-(4-chloro-1-methyl-1H-pyrazol-5-yl)-2-furancarboxamide] | < 6.00 | 31.2 | 6.15 | 5.24 | 11.68 | 20.44 | < 6.00 | 58.1 | 0.7 | < 6.00 | 40.7 | 47.3 | % Tumor Growth Inhibition ([1]; Compound B 10 mg/kg po): 22%; % Tumor Growth Inhibition ([1]; Compound B 30 mg/kg po): 26%; tumor growth inhibition ([1]; at both 10 and 30 mg/kg doses): 27-30%; % Tumor Growth Inhibition ([2]; HPAC-D01, Compound B 10 mg/kg po, Treatment Duration 75): 11%; % Tumor Growth Inhibition ([2]; HPAC-D01, Compound B 30 mg/kg po, Treatment Duration 75): 40%; % Tumor Growth Inhibition ([2]; HPAC-D02, Compound B 10 mg/kg po, Treatment Duration 74): 15%; % Tumor Growth Inhibition ([2]; HPAC-D02, Compound B 30 mg/kg po, Treatment Duration 74): 31%; tumor growth inhibition ([2]; 10 mg/kg QD, two independent studies): 11-15%; tumor growth inhibition ([2]; 30 mg/kg QD, two independent studies): 31-40%

From patent publication US20150094321A1, “COMBINATION” (GlaxoSmithKline LLC, priority 2009, published 2015)
